Test results published in US20200190062A1, “HETEROCYCLIC COMPOUND AND PHARMACEUTICAL COMPOSITION COMPRISING SAME” (BEYONDBIO INC., priority 2015, published 2020).
Structures can show the parent of a compound that is named as a salt. Where two headings read alike, the source gives them in different places.

Columns and labels:
[1] = test system: SK-N-SH; assay: Inhibition of cancer cell proliferation (MTT); assay type: cell-based, human
How it was run: (§1)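 Absorbance at 535 nm of DMSO-dissolved formazan (2 h MTT) gives viability versus 0.08% DMSO-treated cells, and GI50 is derived from eight concentrations between 0.004 and 10 uM. Exposure lasts 72 h at 37 °C, 5% CO2, using 3000 cells/well in 10% FBS medium ([…] for NCI-H23, otherwise DMEM).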

[2] = test system: U-87MG; assay: Inhibition of cancer cell proliferation (MTT); assay type: cell-based, human
How it was run: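 Growth inhibition over 72 h was measured in attached cultures (3000 per well) with 0.08% DMSO as the control. Viable cells were detected with a 2 h MTT step, and the concentration giving 50% inhibition was taken as GI50.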

[3] = test system: SH-SY5Y; assay: Inhibition of cancer cell proliferation (MTT); assay type: cell-based, human
How it was run: as §1

[4] = test system: HCT116; assay: Inhibition of cancer cell proliferation (MTT); assay type: cell-based, human
[5] = target: T1, CDK6/cyclinD3 (Homo sapiens, UniProt Q00534); assay: Inhibition of CDK enzyme activity (ADP-Glo kinase assay); assay type: biochemical; settings: 10 uM ATP, histone H1 substrate; read-out: IC50 CDK6/cyclinD
T1 construct: purchased Merck Millipore
T1 sequence (Q00534 whole entry): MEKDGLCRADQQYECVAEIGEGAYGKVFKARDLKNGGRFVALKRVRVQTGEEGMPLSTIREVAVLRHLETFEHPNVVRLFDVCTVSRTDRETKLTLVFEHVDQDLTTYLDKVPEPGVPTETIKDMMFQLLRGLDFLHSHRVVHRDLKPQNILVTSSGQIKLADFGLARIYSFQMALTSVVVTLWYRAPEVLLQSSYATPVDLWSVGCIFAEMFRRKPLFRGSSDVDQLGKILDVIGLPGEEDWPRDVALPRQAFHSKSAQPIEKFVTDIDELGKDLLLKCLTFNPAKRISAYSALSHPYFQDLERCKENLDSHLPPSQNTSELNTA
T1 sequence (P30281 whole entry partner): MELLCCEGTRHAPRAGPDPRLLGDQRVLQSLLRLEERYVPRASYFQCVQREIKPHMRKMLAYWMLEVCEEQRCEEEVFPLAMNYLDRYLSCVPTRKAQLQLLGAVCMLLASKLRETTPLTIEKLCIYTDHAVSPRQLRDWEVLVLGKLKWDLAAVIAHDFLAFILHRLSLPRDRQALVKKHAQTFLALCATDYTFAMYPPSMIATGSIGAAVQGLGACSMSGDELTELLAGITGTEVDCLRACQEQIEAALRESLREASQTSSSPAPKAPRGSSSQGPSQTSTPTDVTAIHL
Procedure: (§2) Test compounds were prepared by dissolving the compounds obtained in the above Examples in dimethylsulfoxide (DMSO) at a concentration of 10 mM. The test compounds were diluted to 200 nM, 50 nM, […], 3.13 nM, 0.78 nM, and 0.2 nM and used in an enzyme reaction.
(§3) CDK enzyme reaction was conducted in a buffer containing 50 mM Tris-HCl (pH 7.5), 10 mM MgCl2, 1 mM EGTA, 1 mM EDTA, and 2 mM DTT. CDK1/cyclinB, CDK2/cylcinE, CDK5/p25, and CDK6/cyclinD3 enzymes commercially available from Merck Millipore were used for CDK1, CDK2, CDK5, and CDK6 enzymes, respectively, and CDK4/cyclinD1 enzyme commercially available from Signalchem (US) was used for CDK4. For CDK1, a reaction proceeded by adding 10 nM CDK1/cyclinB and 0.125 mg/ml histone H1 (Merck Millipore) substrate to the buffer and then adding 10 uM ATP thereto. For CDK2, a reaction was proceeded by adding 10 nM CDK2/cyclinE and 0.125 mg/ml histone H1 substrate to the buffer and then adding 10 uM ATP thereto. For CDK5, a reaction was proceeded by adding 10 nM CDK5/p25 and 0.125 mg/ml histone H1 substrate to the buffer and then adding 10 uM ATP thereto. For CDK4, a reaction was proceeded by adding 20 nM CDK4/cyclinD1 and 0.125 mg/ml Rb protein (Merck Millipore) to the buffer and then adding 10 uM ATP thereto. For CDK6, a reaction was proceeded by adding 50 nM CDK6/cyclinD3 and 0.125 mg/ml histone H1 substrate to the buffer and then adding 10 uM ATP thereto. Each enzyme reaction was incubated at 30° C. for 60 min. Then, the amount of ADP produced was measured using Victor X4 instrument (Perkin Elmer) after generating luminescence using ADP-Glo kinase assay kit (Promega, US). An inhibition effect on each enzyme was represented as a percentage of the luminescence value in the presence of the test compounds relative to the luminescence value without the test compounds. IC50 (nM) is the concentration of the compound to inhibit 50% of the enzyme activity.

[6] = target: T2, CDK4/cyclinD1 (Homo sapiens, UniProt P11802); assay: as above; assay type: biochemical; settings: 10 uM ATP, Rb protein substrate; read-out: IC50 CDK4/cyclinD
T2 construct: purchased Signalchem (US)
T2 sequence (P11802 whole entry): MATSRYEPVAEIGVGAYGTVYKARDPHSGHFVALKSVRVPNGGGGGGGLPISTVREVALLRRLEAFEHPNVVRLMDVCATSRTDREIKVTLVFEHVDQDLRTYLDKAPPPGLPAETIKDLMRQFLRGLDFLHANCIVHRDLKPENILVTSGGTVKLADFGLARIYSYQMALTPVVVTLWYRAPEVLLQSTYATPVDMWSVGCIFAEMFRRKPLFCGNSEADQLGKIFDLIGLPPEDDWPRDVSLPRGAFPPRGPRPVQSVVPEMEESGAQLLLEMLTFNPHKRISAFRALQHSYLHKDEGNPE
T2 sequence (P24385 whole entry partner): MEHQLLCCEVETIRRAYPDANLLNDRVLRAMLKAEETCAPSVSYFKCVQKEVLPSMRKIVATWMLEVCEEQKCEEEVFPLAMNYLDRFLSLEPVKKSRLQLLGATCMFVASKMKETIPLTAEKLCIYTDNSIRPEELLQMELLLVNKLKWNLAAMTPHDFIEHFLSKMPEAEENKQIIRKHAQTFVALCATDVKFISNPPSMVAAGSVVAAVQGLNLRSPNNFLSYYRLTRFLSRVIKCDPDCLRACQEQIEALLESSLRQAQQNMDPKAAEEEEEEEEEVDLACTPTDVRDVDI
Procedure: as §2, §3

[7] = target: T3, CDK5/p25 (Homo sapiens, UniProt Q00535); assay: as above; assay type: biochemical; settings: 10 uM ATP, histone H1 substrate
T3 construct: purchased Merck Millipore
T3 sequence (Q00535 whole entry): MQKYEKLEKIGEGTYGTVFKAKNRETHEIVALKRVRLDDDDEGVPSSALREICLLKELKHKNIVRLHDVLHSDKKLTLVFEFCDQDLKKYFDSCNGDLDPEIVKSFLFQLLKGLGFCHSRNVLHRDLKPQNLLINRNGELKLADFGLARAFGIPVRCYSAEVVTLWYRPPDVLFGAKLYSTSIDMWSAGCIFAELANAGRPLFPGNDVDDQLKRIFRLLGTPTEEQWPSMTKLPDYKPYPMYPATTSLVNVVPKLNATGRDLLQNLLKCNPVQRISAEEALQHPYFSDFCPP
T3 sequence (Q15078 99-307 partner limits assumed): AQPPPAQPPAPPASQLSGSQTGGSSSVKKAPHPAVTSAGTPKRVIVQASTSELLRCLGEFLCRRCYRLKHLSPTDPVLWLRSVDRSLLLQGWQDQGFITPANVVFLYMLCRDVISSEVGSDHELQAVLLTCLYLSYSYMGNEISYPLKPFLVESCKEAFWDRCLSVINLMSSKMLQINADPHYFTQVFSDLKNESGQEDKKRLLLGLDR
Procedure: as §2, §3

[8] = target: T4, CDK1/cyclinB (Homo sapiens, UniProt P06493); assay: as above; assay type: biochemical; settings: 10 uM ATP, histone H1 substrate
T4 construct: purchased Merck Millipore
T4 sequence (P06493 whole entry): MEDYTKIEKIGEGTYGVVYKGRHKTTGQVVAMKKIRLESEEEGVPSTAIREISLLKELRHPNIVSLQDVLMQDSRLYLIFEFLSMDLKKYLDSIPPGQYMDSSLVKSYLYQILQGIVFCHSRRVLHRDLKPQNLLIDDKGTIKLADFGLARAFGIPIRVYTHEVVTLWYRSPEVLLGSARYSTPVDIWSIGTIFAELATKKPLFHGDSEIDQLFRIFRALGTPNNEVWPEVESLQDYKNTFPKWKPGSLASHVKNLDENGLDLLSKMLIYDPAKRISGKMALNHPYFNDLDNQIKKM
T4 sequence (P14635 whole entry partner): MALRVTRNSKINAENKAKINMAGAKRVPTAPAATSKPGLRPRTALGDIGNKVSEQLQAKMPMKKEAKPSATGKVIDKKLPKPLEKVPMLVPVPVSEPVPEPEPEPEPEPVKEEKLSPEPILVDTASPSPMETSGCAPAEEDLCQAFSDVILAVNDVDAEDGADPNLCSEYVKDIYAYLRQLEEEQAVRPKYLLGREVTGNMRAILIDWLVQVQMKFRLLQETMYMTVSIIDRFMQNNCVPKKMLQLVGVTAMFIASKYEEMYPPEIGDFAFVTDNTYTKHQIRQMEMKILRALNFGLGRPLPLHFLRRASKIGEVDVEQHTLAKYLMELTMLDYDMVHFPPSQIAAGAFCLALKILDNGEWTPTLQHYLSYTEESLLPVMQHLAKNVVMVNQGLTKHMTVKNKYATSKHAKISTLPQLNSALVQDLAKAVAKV
Procedure: as §2, §3

[9] = target: T5, CDK2/cyclinE (Homo sapiens, UniProt P24941); assay: as above; assay type: biochemical; settings: 10 uM ATP, histone H1 substrate
T5 construct: purchased Merck Millipore
Procedure: as §2, §3

[10] = test system: Human colon carcinoma HCT116 cell line; assay: Tumor growth inhibition in an animal model (HCT116 xenograft); assay type: in vivo, Balb/c nude mouse; settings: 100 mpk, oral daily for 12 days
Procedure: Tumor size was measured twice a week using Caliper. […] A vehicle control was 20% propylene glycol (PG) and a positive control was Xeloda at 100 mg/kg.

[11] = Blood brain barrier permeation; assay type: in vivo, ICR mice; settings: mouse, 10 mg/kg, oral once 10 mg/kg; for concentration at 1 h / Kp at 1 h / Kp at 4 h / concentration at 4 h: male, ICR, po; for Kp at 1 h / Kp at 4 h: brain/plasma, read-out: B/P ratio
Procedure: Using 9-week-old male ICR mice, the compounds obtained in the above Examples were orally administered once at a dose of 10 mg/kg or 30 mg/kg, and after 1 hr and 4 hrs, the concentrations of the compounds in the blood and brain of the mice were determined. 3 ICR mice were assigned in each group. Plasma was separated from the blood obtained after sacrificing the mice at each time, the brain of the mice was extracted, and the […] was washed with PBS, followed by pulverizing the brain tissue. The blood was placed in a test tube containing heparin to prevent coagulation and then was centrifuged at 12,000 rpm at 4° C. for 3 min to give a supernatant from which plasma was collected. Brain tissue was weighed, and the brain was pulverized using Dounce's homogenizer after adding 3 times as much volume of PBS as the brain weight. Each of the obtained analytical samples was quantitatively analyzed using a tandem liquid chromatography-mass spectrometer (Tandem LC/MS/MS, API3000 & Agilent 1100 series). Brain permeability of a compound is expressed as a value obtained by dividing the concentration of the compound in the brain by the concentration of the compound in the plasma (B/P ratio), and when the B/P ratio is greater than 1, it means that the concentration in the brain is higher than the one in the blood.

[12] = test system: T98G; assay: Inhibition of cancer cell proliferation (MTT); assay type: cell-based, human; settings: Homo sapiens, T98G, 72 h
How it was run: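 Plate 3000 cells/well and let them adhere for 16 h. Add compound (0.004, 0.013, 0.04, 0.12, 0.37, 1.1, 3.3, 10 uM; 0.08% DMSO) and culture for 72 h. Add MTT for 2 h, dissolve formazan in DMSO, read at 535 nm, and fit GI50.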

[13] = brain, read-out: Concentration in the brain
[14] = plasma, read-out: Concentration in the plasma

Compound: Nc1nccc(-c2nc(-c3ccc(O)cc3)ccc2O)n1 [Example 9, 2-(2-aminopyrimidin-4-yl)-6-(4-hydroxyphenyl)pyridin-3-ol]
- GI50 ([1]; Homo sapiens, SK-N-SH, 72 h): 200 nM
- GI50 ([2]; Homo sapiens, U-87 MG, 72 h): 630 nM
- GI50 ([3]; Homo sapiens, SH-SY5Y, 72 h): 90 nM
- GI50 ([4]; Homo sapiens, HCT-116, 72 h): 200 nM
- IC50 [5]: 44.8 nM
- IC50 [6]: 287 nM
- IC50 [7]: 2.3 nM
- IC50 [8]: 11.6 nM
- IC50 [9]: 6.4 nM

Compound: Nc1nccc(-c2nc(-c3cccc(N)c3F)ccc2O)n1 [Example 18, 6-(3-amino-2-fluorophenyl)-2-(2-aminopyrimidin-4-yl)pyridin-3-ol]
- GI50 ([1]; Homo sapiens, SK-N-SH, 72 h): 780 nM
- GI50 ([2]; Homo sapiens, U-87 MG, 72 h): 5860 nM
- GI50 ([3]; Homo sapiens, SH-SY5Y, 72 h): 200 nM
- GI50 ([4]; Homo sapiens, HCT-116, 72 h): 340 nM
- IC50 [5]: 181 nM
- IC50 [6]: > 200 nM
- IC50 [7]: 6.1 nM
- IC50 [8]: 26.8 nM
- IC50 [9]: 10.7 nM

Compound: Nc1nccc(-c2nc(-c3ccnc(N)c3O)ccc2O)n1 [Example 21, 2′-amino-6-(2-aminopyrimidin-4-yl)-[2,4′-bipyridin]-3′,5-diol]
- GI50 ([1]; Homo sapiens, SK-N-SH, 72 h): 310 nM
- GI50 ([2]; Homo sapiens, U-87 MG, 72 h): 890 nM
- GI50 ([3]; Homo sapiens, SH-SY5Y, 72 h): 110 nM
- GI50 ([4]; Homo sapiens, HCT-116, 72 h): 140 nM
- IC50 [5]: 73.6 nM
- IC50 [6]: 403 nM
- IC50 [7]: 1.5 nM
- IC50 [8]: 6.1 nM
- IC50 [9]: 4.5 nM

Compound: CCCCCOC(=O)Nc1nc(=O)n([C@@H]2O[C@H](C)[C@@H](O)[C@H]2O)cc1F [Xeloda, reference compound]
- Tumor size [10]: 994.7 ± 405.5 mm^3
- tumor growth inhibition ([10]; vs vehicle control): 46%

Compound: Nc1nccc(-c2nc(-c3ccnc(N)c3F)ccc2O)n1 [Example 67, 2′-amino-6-(2-aminopyrimidin-4-yl)-3′-fluoro-[2,4′-bipyridin]-5-ol acetate]
- GI50 ([1]; 72 hrs): 20 nM
- GI50 ([2]; 72 hrs): 90 nM
- GI50 ([3]; 72 hrs): 10 nM
- GI50 ([4]; 72 hrs): 10 nM
- concentration at 1 h [11, 13]: 55.1 ng/g
- Kp at 1 h [11]: 2.21
- Kp at 4 h ([11]; 4 hrs): 3.97
- concentration at 1 h [11, 14]: 24.9 ng/mL
- Concentration in the brain ([11]; 4 hrs): 15.5 ng/g
- Concentration in the plasma ([11]; 4 hrs): 3.9 ng/mL

Compound: Nc1nccc(-c2nc(-c3ccc(O)c(F)c3)ccc2O)n1 [Example 19, 2-(2-aminopyrimidin-4-yl)-6-(3-fluoro-4-hydroxyphenyl)pyridin-3-ol]
- GI50 ([1]; Homo sapiens, SK-N-SH, 72 h): 210 nM
- GI50 ([2]; Homo sapiens, U-87 MG, 72 h): 440 nM
- GI50 ([3]; Homo sapiens, SH-SY5Y, 72 h): 120 nM
- GI50 [12]: 2610 nM
- GI50 ([4]; Homo sapiens, HCT-116, 72 h): 460 nM
- IC50 [5]: 129 nM
- IC50 [6]: > 200 nM
- IC50 [7]: 6.4 nM
- IC50 [8]: 19.6 nM
- IC50 [9]: 14.6 nM

Compound: Nc1nccc(-c2nc(-c3ccc(O)c(F)c3F)ccc2O)n1 [Example 20, 2-(2-aminopyrimidin-4-yl)-6-(2,3-difluoro-4-hydroxyphenyl)pyridin-3-ol]
- GI50 ([1]; Homo sapiens, SK-N-SH, 72 h): 390 nM
- GI50 ([2]; Homo sapiens, U-87 MG, 72 h): 1180 nM
- GI50 ([3]; Homo sapiens, SH-SY5Y, 72 h): 190 nM
- GI50 [12]: 4310 nM
- GI50 ([4]; Homo sapiens, HCT-116, 72 h): 520 nM

Compound: Nc1nccc(-c2nc(-c3ccncc3)ccc2O)n1 [Example 12, 6-(2-aminopyrimidin-4-yl)-[2,4′-bipyridin]-5-ol]
- GI50 ([1]; Homo sapiens, SK-N-SH, 72 h): 420 nM
- GI50 ([2]; Homo sapiens, U-87 MG, 72 h): 790 nM
- GI50 ([3]; Homo sapiens, SH-SY5Y, 72 h): 240 nM
- GI50 [12]: 1830 nM
- GI50 ([4]; Homo sapiens, HCT-116, 72 h): 230 nM
- IC50 [5]: 50.7 nM
- IC50 [6]: > 200 nM
- IC50 [7]: 5.9 nM
- IC50 [8]: 12.6 nM
- IC50 [9]: 6.6 nM
- concentration at 1 h [11, 13]: 71.1 ng/g
- concentration at 4 h ([11]; brain, 4 hrs, read-out: Concentration in the brain): 9.1 ng/g
- Kp at 1 h [11]: 4.1
- Kp at 4 h ([11]; 4 hrs): 3.54
- concentration at 1 h [11, 14]: 17.3 ng/mL
- concentration at 4 h ([11]; plasma, 4 hrs, read-out: Concentration in the plasma): 2.6 ng/mL

Compound: Nc1nccc(-c2nc(-c3ccc(O)cc3F)ccc2O)n1 [Example 17, 2-(2-aminopyrimidin-4-yl)-6-(2-fluoro-4-hydroxyphenyl)pyridin-3-ol]
- GI50 ([1]; Homo sapiens, SK-N-SH, 72 h): 840 nM
- GI50 ([2]; Homo sapiens, U-87 MG, 72 h): 1700 nM
- GI50 ([3]; Homo sapiens, SH-SY5Y, 72 h): 290 nM
- GI50 ([4]; Homo sapiens, HCT-116, 72 h): 610 nM
- IC50 [5]: 65.3 nM
- IC50 [6]: > 200 nM
- IC50 [7]: 3.3 nM
- IC50 [8]: 30.8 nM
- IC50 [9]: 9.4 nM

Compound: Nc1nccc(-c2nc(-c3ccncc3F)ccc2O)n1 [Example 14, 6-(2-aminopyrimidin-4-yl)-3′-fluoro-[2,4′-bipyridin]-5-ol]
- GI50 ([1]; Homo sapiens, SK-N-SH, 72 h): 1040 nM
- GI50 ([2]; Homo sapiens, U-87 MG, 72 h): 3410 nM
- GI50 ([3]; Homo sapiens, SH-SY5Y, 72 h): 540 nM
- GI50 ([4]; Homo sapiens, HCT-116, 72 h): 590 nM

Compound: Nc1nccc(-c2nc(-c3ccc(O)cc3F)ccc2O)n1 [Example 70, 2-(2-aminopyrimidin-4-yl)-6-(2-fluoro-4-hydroxyphenyl)pyridin-3-ol 2hydrochloride]
- GI50 ([1]; 72 hrs): 580 nM
- GI50 ([2]; 72 hrs): 1650 nM
- GI50 ([3]; 72 hrs): 160 nM
- GI50 ([4]; 72 hrs): 530 nM
